Experimental data published in patent US10240124B2, “Cell culture substrate comprising a laminin and a cadherin” (BioLamina AB, priority 2011, dated 2019).

Legend:
[1] = tested on: human pluripotent cells (HS181, HS401, H1, ChiPSW, CutB1.2); assay: Long-term self-renewal culture of hES and iPS cells on LN-521 (Example 2); type: cell-based; conditions: for passages of proliferation on LN-521: O3 medium
hES cells = assay: Cell survival assay, 24 hours (Example 2); type: cell-based, human
Protocol: Briefly, 96-well plates were coated by extracellular matrix proteins as described above and blocked by O3 medium containing bovine serum albumin. The ES cells were plated at cell density of 50,000 cells/cm^2 onto extracellular matrix-coated plates and left to adhere for 1 hour in a cell incubator. After that the plates were washed 3 times with the medium to remove the non-adherent cells, and then the adherent cells were fixed for 20 minutes by 5% glutaraldehyde, stained by 0.1% Crystal Violet. (Kebo Lab, Spanga, Sweden, http://www.kebolab.se). After one hour and 3 washes with water, Crystal Violet was extracted with 10% acetic acid and quantified by measuring optical density at 570 nm. All the experiments were performed in quadruplicate.
The survival assay was performed as described for the cell adhesion assay above, except that the cells were left in the cell incubator for 24 hours. For inhibition of survival assay, the cells were kept in a medium with function blocking antibodies at the concentrations recommended by the manufacturer or pathway inhibitors at concentrations indicated in the text for 30 minutes, and then plated on the coated dishes. All the experiments were performed in quadruplicate.
Pluripotent hES cells express α1, α5, β1, β2 and γ1 laminin chains. To compare the adhesion and clonal survival of hES cells plated from single cell suspension to different coating substrata, hES cells growing as monolayers on LN-511 or as clusters on a feeder layer were trypsinized into single cell suspension in O3 medium and plated on cell culture dishes coated with Matrigel, LN-111, LN-511, LN-521 or a mixture of LN-511 and LN-521, in the absence or presence of a ROCK inhibitor (Y-27632) and analyzed after 24 hours.

myosin light chain (MLC) = assay: Western blot of phosphorylated myosin light chain; type: cell-based, human; conditions: one and six hours after plating, FIG. 12 and 13
Protocol: HS 181 cells were trypsinized into single cell suspension as described above. For inhibition experiments, the cells were kept in O3 medium with blocking antibodies or pathway inhibitors for 30 minutes and then 450K cells were plated on 35 mm dishes precoated with the appropriate matrix coating. For other experiments, same number of cells was plated directly after trypsinization. […] After two washings in ice-cold PBS, the plates with cells were snap frozen in liquid nitrogen and stored at −80° C. To prepare samples for western blots and ELISA, the plates were slowly thawed and kept on ice with 100-150 μl of lysis buffer (50 mM Tris-HCl, pH7.5, 150 mM NaCl, 0.5% deoxycholate, 0.5% SDS, 1% Triton X-100, 1% Igepal, Complete™ (Roche) and Phospho-Stop™ (Roche)) on top. Then, the cells were scraped, pipetted and sheared through a 27 G ¾″ needle. After that, the cell pellets were clarified by centrifugation at 16,100 rcf for 15 minutes at 4° C. For western blots, 4-12% gradient gels were used for SDS electrophoresis and the proteins were transferred to PVDF membranes. The membrane was hybridized with the antibody of interest according to the manufacturer's instructions. […] For the densitometry analysis the films were scanned at 2,400 dpi and analyzed by the Chemilmager5500 program (1 D-Multi Line densitometry mode). […]

human ES cells (HS181) = assay: Cell adhesion assay, Crystal Violet (Example 1); type: cell-based
Protocol: Ninety-six-well tissue cell culture plates were coated overnight at 4° C. with sterile solutions of the ECM proteins mouse LN-111 (Invitrogen), human recombinant LN-511, and human recombinant LN-521, all at a concentration of 30 μg/ml (5 μg/cm^2). For control cells, BD Matrigel™ hESC qualified (BD Biosciences) was used according to the manufacturer's instructions.
The assay was performed as described (Extracellular Matrix Protocols, 2000). Briefly, 96-well plates were coated by extracellular matrix proteins as described above and blocked by O3 medium containing bovine serum albumin. The ES cells were plated at a cell density of 600 cell/mm^2 upon extracellular matrix-coated plates and were left to adhere for either 1 hour or 1 day at the cell incubator. Non-adherent cells were washed away, and adherent cells were fixed for 20 min by 5% glutaraldehyde, stained by 0.1% Crystal Violet.

## LN-521: protein formed by joining α5, β2 and γ1 laminin chains; human recombinant, produced in HEK293 cells
[1]; ChiPSW iPS cells, mTeSR1
  passages cultured on LN-521: 3 passages
[1]; CutB1.2 iPS cells, mTeSR1
  passages cultured on LN-521: 5 passages
[1]; H1 cells, 6 months
  passages of proliferation on LN-521: ≥ 15 passages
[1]; H1 cells, TeSR2, xeno-free, 5 months
  passages cultured on LN-521: 12 passages
[1]; HS181 cells, 9 months
  passages of proliferation on LN-521: at least 24 passages
[1]; HS401 cells, 2 months
  passages of proliferation on LN-521: ≥ 5 passages
[1]; HS401 cells, TeSR2, xeno-free, 1.5 months
  passages cultured on LN-521: 4 passages
hES cells; 40,000 cells per 1 cm^2, 10 μM Y-27632
  survival of Y-27632 treated human ES cells compared with Matrigel: survived better
hES cells; O3 medium
  survival after 24 hours relative to LN-511: three times higher
  survival after 24 hours relative to Matrigel: approximately 20 times
hES cells; O3 medium, absence of ROCK inhibitor
  survival of hES cells 24 hours after plating from single cell suspension: did so as single cells
hES cells; exogenous bFGF removed from the O3 medium
  survival relative to Matrigel without exogenous bFGF: 20 times
hES cells; no bFGF, LiCl, GABA, pipecolic acid, TGFβ
  survival 24 hours after plating in medium lacking all growth factors of the TeSR1 formulation: survived
Myosin light chain (MLC)
  phosphorylation of MLC compared with cells on Matrigel and LN-111: even higher
Human ES cells (HS181); FIG. 7
  adhesion at 1 day without additives compared with all dishes including the ROCK inhibitor: similar
Human ES cells (HS181); HS181 completely dissociated, O3 medium without any additives, FIG. 4
  cells remaining attached / surviving 24 hours after plating: survived
Human ES cells (HS181); O3 medium without any additives, without Y-27632, FIG. 6
  adhesion of human ES cells at 1 hour: roughly the same
Human ES cells (HS181); without additives, FIG. 7
  adhesion at 1 day relative to Matrigel without additives: 20 times
